Experimental data from publication PMC5704756, “Hydrolysis, polarity, and conformational impact of C-terminal partially fluorinated ethyl esters in peptide models” (Beilstein Journal of Organic Chemistry, 2017).
“And” between values parts separate entries of the source, which are not always exact repeats. Identical values can stand only once. Like-named read-outs stand apart in the source and are kept apart here. Peptide text beside a SMILES is read from it. * marks the point of attachment. X1 = FC(F)CO*

How the values were obtained:
[1] = Hydrolytic stability of esters 1–5 in aqueous potassium phosphate buffer, monitored by 1H and 19F NMR; assay type: physicochemical; conditions: for τ½, min (aq buffer): ester hydrolysis; for half-life at 0.5 mM: aqueous potassium phosphate buffer
Excerpt: The kinetic stability of the ester linkage in the aqueous medium is of critical importance, as it further defines the time window for the reactions with the corresponding esters under the biologically relevant conditions of aqueous buffers. Hydrolysis of the C-terminal esters has been fairly well described in the literature, indicating the hydrolysis occurs via a pseudo-first order reaction in a buffered medium assuming that [HO^−] is constant (Equations 1–3): […]
Next, we determined the half-life values following the above mentioned kinetic model for esters 1–5 in aqueous medium at pH 11 and 298 K (Figure 2). […] For the subsequent fluorine atoms, the hydrolysis rate increased by a factor of 3–4 for each appended fluorine atom. […] Extrapolation to pH 8.0 gives a value of 107 ± 28 hours. (This procedure requires multiplication by 1000.) We experimentally determined the half-life of 5 at pH 8 to be 102 ± 2 hours, which agrees well with the extrapolation. The mutual consistency of the values determined with different kinetic modes (minutes at pH 11, days at pH 8) provides a good indication of their accuracy.
Aqueous potassium phosphate buffer (100 mM) at pH 11.0 or 8.0 was mixed with 1:10 (v/v) deuterium oxide to give 550 μL of 91 mM buffer. The analyte 1–5 was added from a 200 mM stock solution in deuterium oxide to give 0.5 mM analyte. The first NMR spectra were collected within 4 min following addition of the analyte. The monitoring was continued by recording ^1H and ^19F NMR spectra at regular time points until >50% hydrolysis. Ambient temperature was maintained at 298 ± 1 K. The decay of the integral intensity of the analyte was quantified by integration. Plotting the logarithm of the intensity versus time delivered the kinetic constant, which was converted to the half-life time (squared correlation coefficient > 0.90). The experiments were performed in triplicate.

[2] = Partitioning between octan-1-ol and water (NMR detection); assay type: physicochemical; conditions: for logP at 24 h: 298 K, 24 hours partitioning, NMR; for ΔlogP vs 4: relative to compound 4
Procedure: To characterize the lipophilicity, esters 1–5 were subjected to 24 hours of partitioning between octan-1-ol and water at 298 K. The resulting partition is illustrated in Figure 3. […] The lipophilicity of 2,2-difluoroethyl derivative 4 is nearly identical to that of parent ethyl ester 2, and the relative difference in the logP from the increase (5 vs 4, ΔlogP = +0.53 ± 0.13) and decrease (3 vs 4, ΔlogP = −0.45 ± 0.13) in the number of fluorine atoms are equivalent to one methyl group difference (2 vs 1, ΔlogP = +0.44 ± 0.08). The amplitude of the change is similar to that reported recently for the corresponding fluorinated ethanols. Importantly, C-terminal esterification maintains a much higher lipophilicity compared with the C-terminal amide 7 (Table 1).
To 4–5 mg analyte, octan-1-ol (1.00 mL) and deionized water (1.00 mL) were added. The mixture was shaken gently at ambient temperature (298 ± 2 K) for 24 hours. Each phase (200 μL) was sampled using identical NMR tubes, and acetonitrile-d3 (300 μL) was added to each sample. The NMR measurements were performed by ^1H or ^19F detection at 298 K using calibrated 90-degree pulses and one-scan experiments in order to ensure complete pre-relaxation. The same acquisition parameters were used for the octan-1-ol and water samples; for processing, only the zero phase was adjusted. The spectra were baseline corrected, and equivalent resonances were integrated. The ratio between the signal intensities was considered as the partitioning constant. The partitioning experiments were performed in triplicate. Subsequent addition of water and octan-1-ol was performed in forward and reverse manner, and the resulting partitioning constants were identical within experimental error.

[3] = Amide rotational thermodynamics and kinetics (trans/cis isomerism) by NMR / EXSY; assay type: physicochemical; conditions: for Ktrans/cis in C6D6: C6D6 (ε 2.27); for Ktrans/cis in C6D6 / Ktrans/cis in CD2Cl2 / Ktrans/cis in CD3CN / Ktrans/cis in CD3OD / Ktrans/cis in CDCl3 / Ktrans/cis in D2O: 298 K; for Ktrans/cis in C6D6 / Ktrans/cis in D2O: analyte 50 ± 10 mM; for k∙10^3 cis→trans in C6D6 / k∙10^3 trans→cis in C6D6: C6D6, 298 K; for k∙10^3 cis→trans in C6D6 / k∙10^3 trans→cis in C6D6 / k∙10^3 cis→trans in D2O / k∙10^3 trans→cis in D2O: EXSY NMR, amide rotation, value is k∙10^3; for Ktrans/cis in CD2Cl2: CD2Cl2 (ε 8.93); for Ktrans/cis in CD3OD: CD3OD (ε 32.7); for Ktrans/cis in CDCl3: CDCl3 (ε 4.81); for Ktrans/cis in D2O: D2O (ε 80.1), 1H/19F NMR; for k∙10^3 cis→trans in D2O / k∙10^3 trans→cis in D2O: 310 K
Excerpt: For 1–5, we found the trans/cis ratios ≈ 5 for all five esters when measured in aqueous medium; the kinetic parameters of the amide rotation were also nearly identical (Table 2). We then noticed that the trans/cis ratios measured for the fluorine-labeled esters 3–5 in nonpolar solvents (such as benzene) were systematically higher relative to the reference compounds 1 and 2. We tested the relative increase in the trans-amide preference ΔΔG as a function of solvent (Equation 4) and found a dependence of this parameter on the dielectric constant, as would be expected from an electrostatic interaction between the polar alkoxy group and the amide moiety (Figure 4).
The amide rotational thermodynamic and kinetic measurements were performed by NMR as described in [50, 68]. The equilibrium ratio between the rotameric states was obtained from the ^1H, ^19F and ^19F{^1H} (inverse-gated decoupling) spectra at 298 K by integration. The kinetics was measured in ^1H and/or ^19F{^1H} z-cross-relaxation experiments at either 310 K (for deuterium oxide samples) or 298 K (for benzene samples). The Jαβ-coupling values were obtained by visual inspection of the α-CH resonances in the ^1H NMR spectra, and the accuracy was defined by the length of the time domain spectrum at approximately 0.3 Hz. The semi-empirical calculations were performed by using the PM6 algorithm from the MOPAC package. DFT geometry optimization of the 5 amide rotamers was performed using B88-PW91 GGA with the DZVP basis set.

[4] = Hydrolysis of C-terminal 2,2-difluoroethyl esters of oligopeptides in buffered deuterium oxide by 19F NMR; assay type: physicochemical; conditions: for τ½ of ester hydrolysis (value outside brackets) / τ½ of ester hydrolysis (value in brackets, alternative kinetic model): buffered deuterium oxide, pH 7.0, 298 K; for τ½ of ester hydrolysis (value outside brackets): Equation 7 (zero order), first (zero) order model; for τ½ of ester hydrolysis (value in brackets, alternative kinetic model): first (zero) order kinetic model; for charge-induced hydrolysis acceleration factor vs 8b: pH 7, 9b, 10b vs 8b
Excerpt: Finally, we tested hydrolytic stability in esterified peptides 8b, 9b and 10b by observing hydrolysis of the ester using ^19F NMR in buffered deuterium oxide (pH 7). We expected pseudo-first order kinetics as for the hydrolysis of esters 1–5 at pH 11. Nonetheless, for the peptide esters 8b, 9b and 10b, the experimental decay (Figure 7) of the ester concentration resembled pseudo-zero order kinetics, which was also observed for another amino acid ester hydrolysis not shown here.
Circular dichroism spectra were recorded in a 1 mm quartz cell at 298 K in methanol (HPLC grade) or aqueous potassium phosphate buffer (50 mM, pH 7.01 at 297 K). The peptide concentration was 100 μM as determined gravimetrically. The mean residue absorption difference Δε was calculated assuming 6 residues for peptides 8a–c, 10a–c and 3 residues for peptides 9a–c. Hydrolysis was measured in deuterium oxide solution of a 150 mM potassium phosphate buffer. The buffer pH 7.01 was adjusted in water at 298 K. It was then lyophilized, then dissolved in deuterium oxide. The peptides were dissolved in the buffer, and the resulting samples were kept at 298 ± 2 K, while the ^19F NMR measurements were conducted at several time points. The starting concentrations of the analytes were 8 mM for 8b, 5 mM for 9b and 2.5 mM for 10b. The half-life was calculated using the first (zero) order kinetic model.

[5] = parameters: method as in doi:10.1002/ijch.201600106; conditions: 310 K, amide rotation, value is k∙10^3, ref [69]; cited from earlier work
[6] = pH 11.0, 298 K, pseudo-first order

Structure (SMILES)	τ½, min (aq buffer) [1, 6]	logP at 24 h ([2]; octan-1-ol/water)	Ktrans/cis in C6D6 [3]	k∙10^3 cis→trans in C6D6 [3] [s^−1]	k∙10^3 trans→cis in C6D6 [3] [s^−1]	Ktrans/cis in CD2Cl2 [3]	Ktrans/cis in CD3CN [3]	Ktrans/cis in CD3OD [3]	Ktrans/cis in CDCl3 [3]	Ktrans/cis in D2O [3]	k∙10^3 cis→trans in D2O [3] [s^−1]	k∙10^3 trans→cis in D2O [3] [s^−1]	τ½ of ester hydrolysis (value in brackets, alternative kinetic model) [4] [days]	also measured
CCOC(=O)C1CCCN1C(C)=O (stereo not drawn) [compound 2, Ethyl N-acetylprolinate]	603 ± 58 (pH 11.0) min	0	4.67 ± 0.03	309 ± 14	67 ± 2	3.52±0.03	3.58±0.04	3.49±0.04	3.20±0.04	4.60 ± 0.08	20 ± 5	6 ± 1		ΔlogP vs 1 ([2]; octan-1-ol/water, relative to compound 1): +0.44 ± 0.08
CC(=O)N1CCC[C@H]1C(=O)OCC(F)(F)F [compound 5, 2,2,2-Trifluoroethyl N-acetylprolinate]	6.4 ± 1.7 min	0.55	10.04 ± 0.15	477 ± 13	48 ± 2	7.07±0.11	5.65±0.05	4.49±0.05	6.65±0.18	5.48 ± 0.14	35 ± 5	6 ± 1		half-life at 0.5 mM ([1]; pH 8, extrapolated from pH 11 value (multiplication by 1000), read-out: half-life, extrapolation to pH 8.0 (converted)): 107 ± 28 h; half-life at 0.5 mM ([1]; pH 8, pH 8, 298 K, read-out: half-life at pH 8, experimentally determined (converted)): 102 ± 2 h; τ½, min (aq buffer) ([1]; pH 8.0, 298 K): 6112 ± 70 min; ΔlogP vs 4 ([2]; octan-1-ol/water): +0.53 ± 0.13
CC(=O)N[C@@H](CCCCN)C(=O)N[C@@H](CCCCN)C(=O)N[C@@H](CCCCN)C(=O)OCC(F)F [peptide 9b, Ac(Lys)3OCH2CHF2∙3HCl]													4.5 ± 0.5	τ½ of ester hydrolysis (value outside brackets) [4]: 5.0 ± 0.3 days and 5.0 ± 0.5 days; charge-induced hydrolysis acceleration factor vs 8b [4]: ≈ 30
CC(=O)N1CCC[C@H]1C(=O)OCC(F)F [compound 4, 2,2-Difluoroethyl N-acetylprolinate]	19.7 ± 2.5 (pH 11.0) min	0.02	9.06 ± 0.26	430 ± 17	47 ± 2	6.57±0.14	4.85±0.07	4.12±0.03	6.29±0.22	4.95 ± 0.05	32 ± 4	7 ± 1		half-life at 0.5 mM ([1]; pH 7, extrapolated from pH 11 value, read-out: half-life extrapolated to pH 7.0 (converted)): 3290 h
CC(=O)N1CCC[C@H]1C(=O)OCCF [compound 3, 2-Fluoroethyl N-acetylprolinate]	80 ± 14 (pH 11.0) min		6.80 ± 0.04	348 ± 11	52 ± 2	4.77±0.10	4.12±0.17	3.61±0.03	4.44±0.20	4.74 ± 0.04	30 ± 2	7 ± 1		logP at 24 h [2]: -0.43 ± 0.07; ΔlogP vs 4 ([2]; octan-1-ol/water): −0.45 ± 0.13
CC(=O)N1CCC[C@H]1C(=O)N1CCC[C@H]1C(=O)N1CCC[C@H]1C(=O)N1CCC[C@H]1C(=O)N1CCC[C@H]1C(=O)N1CCC[C@H]1C(=O)OCC(F)F [peptide 8b, Ac(Pro)6OCH2CHF2] (Ac-PPPPPP-X1)													139 ± 20	
CC(=O)N1CCC[C@H]1C(N)=O [compound 7, reference compound]		-1.57 ± 0.1												
COC(=O)C1CCCN1C(C)=O (stereo not drawn) [compound 1, Methyl N-acetylprolinate]	224 ± 20 (pH 11.0) min	-0.44 ± 0.05	5.10 ± 0.10	342 ± 10	67 ± 2	4.18±0.03	4.08±0.04	3.78±0.03	3.84±0.04	4.94 ± 0.05				k∙10^3 cis→trans in D2O [5]: 33 ± 2^c s^−1; k∙10^3 trans→cis in D2O [5]: 7.0 ± 0.5^c s^−1
CC(=O)N[C@@H](CCCCN)C(=O)N[C@@H](CCCCN)C(=O)N[C@@H](CCCCN)C(=O)N[C@@H](CCCCN)C(=O)N[C@@H](CCCCN)C(=O)N[C@@H](CCCCN)C(=O)OCC(F)F [peptide 10b, Ac(Lys)6OCH2CHF2∙6HCl]													3.7 ± 0.3	τ½ of ester hydrolysis (value outside brackets) [4]: 4.0 ± 0.3 days; charge-induced hydrolysis acceleration factor vs 8b [4]: ≈ 30
